Assay results: patent US7060836B2, “Lactams as tachykinin antagonists” (Pfizer, Inc, priority 2001, dated 2006)

biological target: T1, human NK2 receptor (Homo sapiens, UniProt P21452); test: Competition with [3H] or [125I] NKA for binding to membranes of CHO cells expressing the cloned human NK2 receptor; settings: membranes from CHO cells expressing cloned human NK2 receptor, 90 min, 25° C.
T1 construct: expressed in transfected cells; host or cells: Chinese hamster ovary (CHO) cells, membranes
T1 sequence (P21452 1-398): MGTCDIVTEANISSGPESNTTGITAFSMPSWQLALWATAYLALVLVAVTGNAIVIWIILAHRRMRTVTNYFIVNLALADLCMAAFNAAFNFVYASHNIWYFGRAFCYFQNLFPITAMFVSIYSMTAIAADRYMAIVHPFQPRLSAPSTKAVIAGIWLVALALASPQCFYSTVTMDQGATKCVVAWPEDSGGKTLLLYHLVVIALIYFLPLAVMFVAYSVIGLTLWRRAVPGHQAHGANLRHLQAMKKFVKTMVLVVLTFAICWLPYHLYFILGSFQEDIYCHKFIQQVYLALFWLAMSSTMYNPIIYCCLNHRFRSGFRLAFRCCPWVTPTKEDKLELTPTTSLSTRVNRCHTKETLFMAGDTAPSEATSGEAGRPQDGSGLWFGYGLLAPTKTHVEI
Procedure: The affinity of the compounds of formula (I), and their salts, for the human NK2 receptor can be assessed in vitro by testing their ability to compete with [^3H] or [^125I] NKA (neurokinin A) for binding to membranes prepared from Chinese hamster ovary cells expressing the cloned human NK2 receptor using a modification of the method described in McLean, S. et al., J. Pharm. Exp. Ther., 267, 472–9 (1993). The membranes are incubated (90 min, 25° C.) with [^3H] or [^125I] NKA and a range of concentrations of the test compound. Non specific binding was determined in the presence of 1 μM SR-48968 (N-[(2S)-4-[4-(acetylamino)-4-phenyl-1-piperidinyl]-2-(3,4-dichlorophenyl)butyl]-N-methyl benzamide).

Row | SMILES | Ki
1 | COC1CCN(CC[C@]2(c3ccc(Cl)c(Cl)c3)CCC(=O)N(c3ccccn3)C2)CC1 [Example 61, (5S)-5-(3,4-Dichlorophenyl)-5-[2-(4-methoxy-1-piperidinyl)ethyl]-1-(2-pyridinyl)-2-piperidinone] | 12 nM
2 | COc1cccc(N2C[C@@](CCN3CC(N4CCOCC4)C3)(c3ccc(Cl)c(Cl)c3)CCC2=O)n1 [Example 119, (5S)-5-(3,4-Dichlorophenyl)-1-(6-methoxy-2-pyridinyl)-5-{2-[3-(4-morpholinyl)-1-azetidinyl]ethyl}-2-piperidinone] | 5.4 nM
3 | CC(=O)N(C)C1CCN(CC[C@]2(c3ccc(Cl)c(Cl)c3)CCC(=O)N(c3ccccn3)C2)CC1 [Example 158, N-(1-{2-[(3S)-3-(3,4-Dichlorophenyl)-6-oxo-1-(2-pyridinyl)piperidinyl]ethyl}-4-piperidinyl)-N-methylacetamide] | 8 nM
4 | Cc1cccc(N2C[C@@](CCN3CCC(O)(c4ccccc4)CC3)(c3ccc(Cl)c(Cl)c3)CCC2=O)n1 [Example 134, (5S)-5-(3,4-Dichlorophenyl)-1-(6-methyl-2-pyridinyl)-5-{{2-[4-hydroxy-4-phenyl]-1-piperidinyl}ethyl}-2-piperidinone] | 1.9 nM
5 | O=C1CC[C@](CCN2CCC(O)(c3ccccn3)CC2)(c2ccc(Cl)c(Cl)c2)CN1c1ccccn1 [Example 92, (5S)-5-(3,4-Dichlorophenyl)-5-{2-[4-hydroxy-4-(2-pyridyl)-1-piperidinyl]ethyl}-1-(2-pyridinyl)-2-piperidinone] | 7 nM

The remaining lines, values ahead:

Row | Ki | SMILES
6 | 2.4 nM | CC(=O)NC1(c2ccccc2)CCN(CC[C@]2(c3ccc(Cl)c(Cl)c3)CCC(=O)N(c3ccccn3)C2)CC1 [Example 90, N-(1-{2-[(3S)-3-(3,4-Dichlorophenyl)-6-oxo-1-(2-pyridinyl)piperidinyl]ethyl}-4-phenyl-4-piperidinyl)-acetamide]
7 | 3.8 nM | Cc1cccc(N2C[C@@](CCN3CC(N4CCOCC4)C3)(c3ccc(Cl)c(Cl)c3)CCC2=O)n1 [Example 131, (5S)-5-(3,4-Dichlorophenyl)-1-(6-methyl-2-pyridinyl)-5-{2-[3-(4-morpholinyl)-1-azetidinyl]ethyl}-2-piperidinone]
8 | 2.2 nM | O=C1CC[C@](CCN2CC(N3CCC(O)CC3)C2)(c2ccc(Cl)c(Cl)c2)CN1c1ccccn1 [Example 73, (5S)-5-(3,4-Dichlorophenyl)-5-{2-[3-(4-hydroxy-1-piperidinyl)-1-azetidinyl]ethyl}-1-(2-pyridinyl)-2-piperidinone]
9 | 2.6 nM | Cc1cccc(N2CC(CCN3CC(N4CCC(=O)CC4)C3)(c3ccc(Cl)c(Cl)c3)CCC2=O)n1 (centres unmarked) [Example 168, 5-(3,4-Dichlorophenyl)-1-(6-methyl-2-pyridinyl)-5-{2-[3-(4-oxo-1-piperidinyl)-1-azetidinyl]ethyl}-2-piperidinone]
10 | 3.7 nM | Cc1cccc(N2C[C@@](CCN3CC(N4CCC(O)CC4)C3)(c3ccc(Cl)c(Cl)c3)CCC2=O)n1 [Example 135a, (5S)-5-(3,4-Dichlorophenyl)-1-(6-methyl-2-pyridinyl)-5-{2-[3-(4-hydroxypiperidinyl)-1-azetidinyl]ethyl}-2-piperidinone]

system: not given; test: not given; settings: not given

Row | melting point | SMILES
11 | 175.5 to 177 °C | Cc1cccc(N2C[C@@](CCN3CC(N4CCC(O)CC4)C3)(c3ccc(Cl)c(Cl)c3)CCC2=O)n1.O=C(O)/C=C/C(=O)O
